Bridge positions count the residues as written; N and C are the ends. Square brackets hold non-standard residues; d marks the D form. Peptide text beside a SMILES is read from it. * marks the point of attachment. Bip = N[C@@H](Cc1ccc(-c2ccccc2)cc1)C(=O)O; Phe(3-Me) = Cc1cccc(C[C@H](N)C(=O)O)c1; 4Pal = N[C@@H](Cc1ccncc1)C(=O)O; Cha = N[C@@H](CC1CCCCC1)C(=O)O; Cit = NC(=O)NCCC[C@H](N)C(=O)O; Carboxymethyl = O=C(O)C*; Orn = NCCC[C@H](N)C(=O)O; Aun = NCCCCCCCCCCC(=O)O; Dab = NCC[C@H](N)C(=O)O; Dap = NC[C@H](N)C(=O)O
Target: T1, PD-1/PD-L1 interaction (PE-labeled human PD-L1-Ig binding to Jurkat cell line over-expressing human PD-1) (Homo sapiens, UniProt Q15116)
T1 construct: expressed in transfected cells; host or cells: Jurkat
Assay: Jurkat-PD-1 Cell Binding High-Content Screening Assay (CBA)
Format: cell-based
Details: Jurkat cell line over-expressing human PD-1; PE-labeled PD-L1-Ig 20 nM final; read-out: Jurkat hPD1-PDL1 IC50
Summary of the method: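 Jurkat-hPD-1 cells, DMEM/10% FCS; cpd 2 h 37° C; PE-PD-L1-Ig 20 nM final, 1 h; 4% PFA fix + Hoechst 33342, 3× dPBS wash; high-content imaging read-out.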

T1 sequence (Q15116 25-288): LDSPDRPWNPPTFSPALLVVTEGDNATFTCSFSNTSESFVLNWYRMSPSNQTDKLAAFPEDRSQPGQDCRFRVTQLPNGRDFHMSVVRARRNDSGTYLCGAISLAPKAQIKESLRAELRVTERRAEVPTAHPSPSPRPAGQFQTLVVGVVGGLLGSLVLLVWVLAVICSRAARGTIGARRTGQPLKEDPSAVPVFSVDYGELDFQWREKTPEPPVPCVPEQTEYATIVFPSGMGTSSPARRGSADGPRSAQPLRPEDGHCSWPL

SMILES | IC50
Cc1cccc(C[C@@H]2NC(=O)[C@H](CC(=O)O)NC(=O)[C@H](Cc3ccc(OCC(=O)O)cc3)NC(=O)[C@H](CCCNC(=N)N)NC(=O)CSC[C@@H](C(=O)N[C@@H](CCN)C(=O)NCCCCCCCCCCC(=O)O)NC(=O)[C@H](CCCNC(N)=O)NC(=O)[C@H](C(C)C)NC(=O)[C@H](CC3CCCCC3)NC(=O)[C@H](CCN)NC(=O)[C@@H](CC(C)C)NC(=O)[C@H](CCCN)NC(=O)[C@H](Cc3ccc(O)cc3)NC(=O)[C@H](Cc3ccc(-c4ccccc4)cc3)NC(=O)[C@H](C(C)C)NC2=O)c1 [Compound 2723] ({CH2CO}-RY(Carboxymethyl)D[Phe(3-Me)]V[Bip]Y[Orn][dL][Dab][Cha]V[Cit]C[Dab][Aun]-OH; thioether N-14) | 26.9 nM
Cc1cccc(C[C@@H]2NC(=O)[C@H](CC(=O)O)NC(=O)[C@H](Cc3ccc(OCC(=O)O)cc3)NC(=O)[C@H](CCCNC(=N)N)NC(=O)CSC[C@@H](C(=O)N[C@@H](CCN)C(=O)NCCCCCCCCCCC(=O)O)NC(=O)[C@H]([C@@H](C)O)NC(=O)[C@H](C(C)C)NC(=O)[C@H](CC3CCCCC3)NC(=O)[C@H](CCN)NC(=O)[C@@H](CC(C)C)NC(=O)[C@H](CCCN)NC(=O)[C@H](Cc3ccc(O)cc3)NC(=O)[C@H](Cc3ccc(-c4ccccc4)cc3)NC(=O)[C@H](C(C)C)NC2=O)c1 [Compound 2725] ({CH2CO}-RY(Carboxymethyl)D[Phe(3-Me)]V[Bip]Y[Orn][dL][Dab][Cha]VTC[Dab][Aun]-OH; thioether N-14) | 29.9 nM
CC(C)C[C@H]1NC(=O)[C@H](CCCN)NC(=O)[C@H](Cc2ccc(O)cc2)NC(=O)[C@H](Cc2ccc(-c3ccccc3)cc2)NC(=O)[C@H](C(C)C)NC(=O)[C@H](Cc2c[nH]c3ccccc23)NC(=O)[C@H](CC(=O)O)NC(=O)[C@H](Cc2ccc(OCC(=O)O)cc2)NC(=O)[C@H]([C@@H](C)O)NC(=O)CSC[C@@H](C(=O)N[C@@H](CCN)C(=O)NCCCCCCCCCCC(=O)O)NC(=O)[C@H]([C@@H](C)O)NC(=O)[C@H](C(C)C)NC(=O)[C@H](CC2CCCCC2)NC(=O)[C@H](CCN)NC1=O [Compound 2727] ({CH2CO}-TY(Carboxymethyl)DWV[Bip]Y[Orn][dL][Dab][Cha]VTC[Dab][Aun]-OH; thioether N-14) | 30.1 nM
Cc1cccc(C[C@@H]2NC(=O)[C@H](CC(=O)O)NC(=O)[C@H](Cc3ccc(OCC(=O)O)cc3)NC(=O)[C@H](CN)NC(=O)CSC[C@@H](C(=O)N[C@@H](CCN)C(=O)NCCCCCCCCCCC(=O)O)NC(=O)[C@H]([C@@H](C)O)NC(=O)[C@H](C(C)C)NC(=O)[C@H](CC3CCCCC3)NC(=O)[C@H](CCN)NC(=O)[C@@H](CC(C)C)NC(=O)[C@H](CCCN)NC(=O)[C@H](Cc3ccc(OCC(=O)O)cc3)NC(=O)[C@H](Cc3ccc(-c4ccccc4)cc3)NC(=O)[C@H](C(C)C)NC2=O)c1 [Compound 2731] ({CH2CO}-[Dap]Y(Carboxymethyl)D[Phe(3-Me)]V[Bip]Y(Carboxymethyl)[Orn][dL][Dab][Cha]VTC[Dab][Aun]-OH; thioether N-14) | 18.6 nM
Cc1cccc(C[C@@H]2NC(=O)[C@H](CC(=O)O)NC(=O)[C@H](Cc3ccc(OCC(=O)O)cc3)NC(=O)[C@H](CN)NC(=O)CSC[C@@H](C(=O)N[C@@H](CCN)C(=O)NCCCCCCCCCCC(=O)O)NC(=O)[C@H]([C@@H](C)O)NC(=O)[C@H](C(C)C)NC(=O)[C@H](CC3CCCCC3)NC(=O)[C@H](CCN)NC(=O)[C@@H](CC(C)C)NC(=O)[C@H](CCCN)NC(=O)[C@H](Cc3ccc(OCC(=O)O)cc3)NC(=O)[C@H](Cc3ccc(-c4ccccc4)cc3)NC(=O)[C@H](Cc3ccc(OCC(=O)O)cc3)NC2=O)c1 [Compound 2732] ({CH2CO}-[Dap]Y(Carboxymethyl)D[Phe(3-Me)]Y(Carboxymethyl)[Bip]Y(Carboxymethyl)[Orn][dL][Dab][Cha]VTC[Dab][Aun]-OH; thioether N-14) | 21.2 nM
Cc1cccc(C[C@@H]2NC(=O)[C@H](CC(=O)O)NC(=O)[C@H](Cc3ccncc3)NC(=O)[C@H](Cc3ccc(OCC(=O)O)cc3)NC(=O)CSC[C@@H](C(=O)N[C@@H](CCN)C(=O)NCCCCCCCCCCC(=O)O)NC(=O)[C@H]([C@@H](C)O)NC(=O)[C@H](C(C)C)NC(=O)[C@H](CC3CCCCC3)NC(=O)[C@H](CCN)NC(=O)[C@@H](CC(C)C)NC(=O)[C@H](CCCN)NC(=O)[C@H](Cc3ccc(O)cc3)NC(=O)[C@H](Cc3ccc(-c4ccccc4)cc3)NC(=O)[C@H](C(C)C)NC2=O)c1 [Compound 2733] ({CH2CO}-Y(Carboxymethyl)[4Pal]D[Phe(3-Me)]V[Bip]Y[Orn][dL][Dab][Cha]VTC[Dab][Aun]-OH; thioether N-14) | 42.2 nM
Cc1cccc(C[C@@H]2NC(=O)[C@H](CC(=O)O)NC(=O)[C@H](Cc3ccncc3)NC(=O)[C@H](Cc3ccc(OCC(=O)O)cc3)NC(=O)CSC[C@@H](C(=O)N[C@@H](CCN)C(=O)NCCCCCCCCCCC(=O)O)NC(=O)[C@H]([C@@H](C)O)NC(=O)[C@H](C(C)C)NC(=O)[C@H](CC3CCCCC3)NC(=O)[C@H](CCN)NC(=O)[C@@H](CC(C)C)NC(=O)[C@H](CCCN)NC(=O)[C@H](Cc3ccc(O)cc3)NC(=O)[C@H](Cc3ccc(-c4ccccc4)cc3)NC(=O)[C@H](Cc3ccc(O)cc3)NC2=O)c1 [Compound 2734] ({CH2CO}-Y(Carboxymethyl)[4Pal]D[Phe(3-Me)]Y[Bip]Y[Orn][dL][Dab][Cha]VTC[Dab][Aun]-OH; thioether N-14) | 27.2 nM
Cc1cccc(C[C@@H]2NC(=O)[C@H](CC(=O)O)NC(=O)[C@H](Cc3ccc(OCC(=O)O)cc3)NC(=O)[C@H](CN)NC(=O)CSC[C@@H](C(=O)N[C@H](CC(=O)NCCCCCCCCCCC(=O)O)C(N)=O)NC(=O)[C@H]([C@@H](C)O)NC(=O)[C@H](C(C)C)NC(=O)[C@H](CC3CCCCC3)NC(=O)[C@H](CCN)NC(=O)[C@@H](CC(C)C)NC(=O)[C@H](CCCN)NC(=O)[C@H](Cc3ccc(O)cc3)NC(=O)[C@H](Cc3ccc(-c4ccccc4)cc3)NC(=O)[C@H](C(C)C)NC2=O)c1 [Compound 2735] ({CH2CO}-[Dap]Y(Carboxymethyl)D[Phe(3-Me)]V[Bip]Y[Orn][dL][Dab][Cha]VTC[dD](Aun)-NH2; thioether N-14) | 72.4 nM

Now from value to compound:

IC50 | SMILES
7.7 nM | Cc1cccc(C[C@@H]2NC(=O)[C@H](CC(=O)O)NC(=O)[C@H](Cc3ccc(OCC(=O)O)cc3)NC(=O)[C@H](CCCNC(=N)N)NC(=O)CSC[C@@H](C(=O)N[C@@H](CCN)C(=O)NCCCCCCCCCCC(=O)O)NC(=O)[C@H](CCCNC(N)=O)NC(=O)[C@H](C(C)C)NC(=O)[C@H](CC3CCCCC3)NC(=O)[C@H](CCN)NC(=O)[C@@H](CC(C)C)NC(=O)[C@H](CCCN)NC(=O)[C@H](Cc3ccc(O)cc3)NC(=O)[C@H](Cc3ccc(-c4ccccc4)cc3)NC(=O)[C@H](Cc3ccc(O)cc3)NC2=O)c1 [Compound 2724] ({CH2CO}-RY(Carboxymethyl)D[Phe(3-Me)]Y[Bip]Y[Orn][dL][Dab][Cha]V[Cit]C[Dab][Aun]-OH; thioether N-14)
24.1 nM | Cc1cccc(C[C@@H]2NC(=O)[C@H](CC(=O)O)NC(=O)[C@H](Cc3ccc(OCC(=O)O)cc3)NC(=O)[C@H](CCCNC(=N)N)NC(=O)CSC[C@@H](C(=O)N[C@@H](CCN)C(=O)NCCCCCCCCCCC(=O)O)NC(=O)[C@H]([C@@H](C)O)NC(=O)[C@H](C(C)C)NC(=O)[C@H](CC3CCCCC3)NC(=O)[C@H](CCN)NC(=O)[C@@H](CC(C)C)NC(=O)[C@H](CCCN)NC(=O)[C@H](Cc3ccc(O)cc3)NC(=O)[C@H](Cc3ccc(-c4ccccc4)cc3)NC(=O)[C@H](Cc3ccc(O)cc3)NC2=O)c1 [Compound 2726] ({CH2CO}-RY(Carboxymethyl)D[Phe(3-Me)]Y[Bip]Y[Orn][dL][Dab][Cha]VTC[Dab][Aun]-OH; thioether N-14)
17.4 nM | CC(C)C[C@H]1NC(=O)[C@H](CCCN)NC(=O)[C@H](Cc2ccc(O)cc2)NC(=O)[C@H](Cc2ccc(-c3ccccc3)cc2)NC(=O)[C@H](Cc2ccc(O)cc2)NC(=O)[C@H](Cc2c[nH]c3ccccc23)NC(=O)[C@H](CC(=O)O)NC(=O)[C@H](Cc2ccc(OCC(=O)O)cc2)NC(=O)[C@H]([C@@H](C)O)NC(=O)CSC[C@@H](C(=O)N[C@@H](CCN)C(=O)NCCCCCCCCCCC(=O)O)NC(=O)[C@H]([C@@H](C)O)NC(=O)[C@H](C(C)C)NC(=O)[C@H](CC2CCCCC2)NC(=O)[C@H](CCN)NC1=O [Compound 2728] ({CH2CO}-TY(Carboxymethyl)DWY[Bip]Y[Orn][dL][Dab][Cha]VTC[Dab][Aun]-OH; thioether N-14)
12.9 nM | CC(C)C[C@H]1NC(=O)[C@H](CCCN)NC(=O)[C@H](Cc2ccc(O)cc2)NC(=O)[C@H](Cc2ccc(-c3ccccc3)cc2)NC(=O)[C@H](C(C)C)NC(=O)[C@H](Cc2c[nH]c3ccccc23)NC(=O)[C@H](CC(=O)O)NC(=O)[C@H](Cc2ccc(OCC(=O)O)cc2)NC(=O)[C@H]([C@@H](C)O)NC(=O)CSC[C@@H](C(=O)N[C@@H](CCN)C(=O)NCCCCCCCCCCC(=O)O)NC(=O)[C@H](CCCNC(N)=O)NC(=O)[C@H](C(C)C)NC(=O)[C@H](CC2CCCCC2)NC(=O)[C@H](CCN)NC1=O [Compound 2729] ({CH2CO}-TY(Carboxymethyl)DWV[Bip]Y[Orn][dL][Dab][Cha]V[Cit]C[Dab][Aun]-OH; thioether N-14)
15.5 nM | CC(C)C[C@H]1NC(=O)[C@H](CCCN)NC(=O)[C@H](Cc2ccc(O)cc2)NC(=O)[C@H](Cc2ccc(-c3ccccc3)cc2)NC(=O)[C@H](Cc2ccc(O)cc2)NC(=O)[C@H](Cc2c[nH]c3ccccc23)NC(=O)[C@H](CC(=O)O)NC(=O)[C@H](Cc2ccc(OCC(=O)O)cc2)NC(=O)[C@H]([C@@H](C)O)NC(=O)CSC[C@@H](C(=O)N[C@@H](CCN)C(=O)NCCCCCCCCCCC(=O)O)NC(=O)[C@H](CCCNC(N)=O)NC(=O)[C@H](C(C)C)NC(=O)[C@H](CC2CCCCC2)NC(=O)[C@H](CCN)NC1=O [Compound 2730] ({CH2CO}-TY(Carboxymethyl)DWY[Bip]Y[Orn][dL][Dab][Cha]V[Cit]C[Dab][Aun]-OH; thioether N-14)
